Laboratory results: US20230218632A1, “CYCLIC SULFONAMIDE DERIVATIVES AS TRAP1 MODULATORS AND USES THEREOF” (Amathus Therapeutics, Inc., priority 2020, published 2023)

Key:
[1] = system: mIMCD3 Pkd1 KO cells; assay: Mouse cell derived cyst assay; assay type: cell-based; conditions: Pkd 1 KO mouse cell derived cyst forming assay; FIG. 6
Experimental: Mouse cell derived cyst assays were performed as described in Booij, Tijmen H et al., SLAS discovery: advancing life sciences R & D vol. 22,8 (2017): 974-984, or as described below.
Murine inner medullary collecting duct cell line (mIMCD3 Pkd1^-/- cells) • mIMCD3 Pkd1 KO cells were seeded in 384 wells plates in extracellular matrix. • 4 days after seeding, cultures were co-exposed to treatments and stimuli (2.5 µM forskolin); • After 72 h, cultures were fixed, stained for nuclei and actin cytoskeleton and imaged with 4x magnification; and • Image analysis of the 3D stack was done using Ominer™ image analysis software.

[2] = biological target: T1, nanoLuc TRAP1 (Homo sapiens, UniProt Q12931); assay: NanoBRET in-cell target engagement assay; assay type: binding; conditions: probe-385, 1 µM; live SHSY5Y cells; FIG. 2
T1 construct: expressed in transfected cells; host or cells: SH-SY5Y cells, transient transfection with FuGENE HD
T1 sequence (Q12931 60-704): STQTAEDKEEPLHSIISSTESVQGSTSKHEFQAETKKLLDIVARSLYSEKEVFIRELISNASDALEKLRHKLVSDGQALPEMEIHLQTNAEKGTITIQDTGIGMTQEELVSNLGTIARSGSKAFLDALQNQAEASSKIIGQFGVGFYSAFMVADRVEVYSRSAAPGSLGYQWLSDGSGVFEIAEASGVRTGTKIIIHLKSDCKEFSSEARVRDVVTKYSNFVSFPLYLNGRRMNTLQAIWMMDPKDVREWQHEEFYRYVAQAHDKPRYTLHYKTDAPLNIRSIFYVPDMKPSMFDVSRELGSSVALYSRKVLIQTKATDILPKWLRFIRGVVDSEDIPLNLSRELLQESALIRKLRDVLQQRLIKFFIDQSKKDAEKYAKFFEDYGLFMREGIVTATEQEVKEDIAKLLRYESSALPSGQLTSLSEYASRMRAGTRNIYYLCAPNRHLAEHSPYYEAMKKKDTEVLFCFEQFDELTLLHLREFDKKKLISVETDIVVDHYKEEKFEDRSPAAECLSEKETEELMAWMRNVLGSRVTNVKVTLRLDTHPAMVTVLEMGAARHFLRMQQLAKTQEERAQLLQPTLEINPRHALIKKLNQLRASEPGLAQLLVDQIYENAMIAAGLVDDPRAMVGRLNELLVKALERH
Experimental: In-cell target engagement assays were performed as described in Robers M.B. et al. (2019) Quantitative, Real-Time Measurements of Intracellular Target Engagement Using Energy Transfer. In: Ziegler S., Waldmann H. (eds) Systems Chemical Biology. Methods in Molecular Biology, vol 1888. Humana Press, New York, NY; Machleidt et al., ACS Chem. Biol. 2015, 10, 8, 1797-1804; or Vasta et al., Cell Chemical Biology 25, 206-214, Feb. 15, 2018; or as described herein.
Below is a protocol for transient transfection of SHSY5Y cells with NanoLuc® fusions. • 1. Cultivate SHSY5Y cells appropriately prior to assay in MEM w NEAA supplemented with 10% FBS. • 2. Remove medium from cell flask via aspiration, trypsinize, and allow cells to dissociate from the flask. • 3. Neutralize trypsin using growth medium and pellet cells via centrifugation at 200 g for 5 minutes. • 4. Aspirate medium and re-suspend cells into a single cell suspension using complete cell culture medium. • 5. Adjust the cell density to 300 K/mL in cell culture medium in a sterile, conical tube. • 6. Prepare lipid:DNA complexes as follows (this covers two assay plates, adjust numbers for more plates) • a. Prepare a 10 µg/mL solution of DNA in Opti-MEM without serum. This solution should contain the following ratios of carrier DNA and DNA encoding NanoLuc® fusion. • i. 5.0 µg/mL of Transfection Carrier DNA (pGEM) • ii. […]

`O=C(Nc1ccc2c(c1)S(=O)(=O)N(c1ccc(Br)cc1)CCO2)c1cnc(-c2ccccc2)[nH]1` [Compound 1331, N-(2-(4-bromophenyl)-1,1-dioxido-3,4-dihydro-2H-benzo[b][1,4,5]oxathiazepin-8-yl)-2-phenyl-1H-imidazole-5-carboxamide] was tested, and the cyst formation [1] was “preventing cyst formation” and the “displacement of nanoBRET tracer” value [2] was “displacing the nanoBRET tracer molecule”.
